Measured values as given in patent US20220009920A1 (GB005, Inc., priority 2020, published 2022).

Assays:
Test in all cases: Large panel kinase profiling
Assay type in all cases: biochemical
Details in all cases: 1 μM test article, 1 mM ATP
PRKCQ/PKCQ = PRKCQ/PKCQ (Homo sapiens, UniProt Q04759)
Protocol: (§1) Large panel kinase profiling was performed at AssayQuant Technologies, Inc. 260 Cedar Hill Street, Marlborough, Mass. 01752 using the PhosphoSens® CSox-Sensor platform using 1 μM test article concentration and 1 mM ATP concentration (www.assayquant.com). Reactions were run in Corning, half-area 96-well, white flat round bottom polystyrene NBS microplates (Cat. #3642) after sealing using optically-clear adhesive film (TopSealA-Plus plate seal, PerkinElmer), applied with either a roller or a paddle to eliminate evaporation and resulting drift. The standard total reaction volume was 50 μL. All experiments were ran at 30° C. to control for fluctuations in ambient temperature. Plates were read from the top in kinetic mode (readings taken every 1 min), monitoring fluorescence intensity with filters using Ex 360 nm and Em 485 nm and a band width of 40 and 20 nm, respectively, and a gain of 80. Data analysis was performed using either Graphpad Prism or Gene Data Screener software.

TAOK1 = molecular target: T1, TAOK1 (Homo sapiens, UniProt Q7L7X3)
T1 construct: AssayQuant Technologies, Inc. (contract assay)
T1 sequence (Q7L7X3 1-1001): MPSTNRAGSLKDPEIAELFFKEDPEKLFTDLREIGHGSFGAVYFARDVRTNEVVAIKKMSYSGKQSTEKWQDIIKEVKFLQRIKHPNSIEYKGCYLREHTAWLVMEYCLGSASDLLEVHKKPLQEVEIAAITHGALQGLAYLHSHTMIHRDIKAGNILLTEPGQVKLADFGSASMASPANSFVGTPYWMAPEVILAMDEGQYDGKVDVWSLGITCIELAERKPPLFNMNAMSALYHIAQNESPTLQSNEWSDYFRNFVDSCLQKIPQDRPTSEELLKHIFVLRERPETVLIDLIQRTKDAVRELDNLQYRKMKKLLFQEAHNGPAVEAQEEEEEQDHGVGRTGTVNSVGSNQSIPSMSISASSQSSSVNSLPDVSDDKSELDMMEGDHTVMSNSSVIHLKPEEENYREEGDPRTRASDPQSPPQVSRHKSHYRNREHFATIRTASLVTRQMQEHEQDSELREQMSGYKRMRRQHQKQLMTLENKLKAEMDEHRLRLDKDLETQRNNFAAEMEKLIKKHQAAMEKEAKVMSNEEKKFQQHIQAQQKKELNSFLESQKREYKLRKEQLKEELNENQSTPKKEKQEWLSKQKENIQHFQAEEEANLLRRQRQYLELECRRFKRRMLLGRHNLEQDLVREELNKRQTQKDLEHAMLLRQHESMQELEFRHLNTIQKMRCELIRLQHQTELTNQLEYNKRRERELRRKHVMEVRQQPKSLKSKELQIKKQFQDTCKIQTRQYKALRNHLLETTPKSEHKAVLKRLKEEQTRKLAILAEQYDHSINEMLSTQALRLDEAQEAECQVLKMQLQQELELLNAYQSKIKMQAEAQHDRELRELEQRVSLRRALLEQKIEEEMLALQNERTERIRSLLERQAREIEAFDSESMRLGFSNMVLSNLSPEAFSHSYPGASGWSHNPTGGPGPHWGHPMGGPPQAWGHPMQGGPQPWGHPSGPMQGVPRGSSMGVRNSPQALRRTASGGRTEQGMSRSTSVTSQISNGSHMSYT
Protocol: as §1

MAP3K2 = molecular target: T2, MAP3K2 (Homo sapiens, UniProt Q9Y2U5)
T2 construct: AssayQuant Technologies, Inc. (service provider)
T2 sequence (Q9Y2U5 1-619): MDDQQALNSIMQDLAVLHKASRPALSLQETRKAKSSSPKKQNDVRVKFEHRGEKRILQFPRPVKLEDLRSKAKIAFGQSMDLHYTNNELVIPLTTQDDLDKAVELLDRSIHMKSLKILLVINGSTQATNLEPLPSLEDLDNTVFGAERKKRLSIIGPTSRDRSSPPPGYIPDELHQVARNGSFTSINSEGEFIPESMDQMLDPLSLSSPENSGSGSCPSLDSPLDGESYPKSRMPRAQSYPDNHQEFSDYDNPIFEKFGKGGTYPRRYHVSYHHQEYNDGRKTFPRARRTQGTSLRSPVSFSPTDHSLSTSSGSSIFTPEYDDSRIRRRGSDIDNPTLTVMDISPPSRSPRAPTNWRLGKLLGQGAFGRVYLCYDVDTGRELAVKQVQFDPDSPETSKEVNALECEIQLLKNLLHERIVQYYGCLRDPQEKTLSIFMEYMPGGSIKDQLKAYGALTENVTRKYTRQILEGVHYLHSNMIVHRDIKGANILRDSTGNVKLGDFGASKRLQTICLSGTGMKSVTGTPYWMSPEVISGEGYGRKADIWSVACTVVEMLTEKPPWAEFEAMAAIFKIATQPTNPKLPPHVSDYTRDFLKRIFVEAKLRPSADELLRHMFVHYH
Protocol: as §1

TSSK2 = molecular target: T3, TSSK2 (Homo sapiens, UniProt Q96PF2)
T3 construct: AssayQuant Technologies, Inc. (contract laboratory that ran the panel)
T3 sequence (Q96PF2 1-358): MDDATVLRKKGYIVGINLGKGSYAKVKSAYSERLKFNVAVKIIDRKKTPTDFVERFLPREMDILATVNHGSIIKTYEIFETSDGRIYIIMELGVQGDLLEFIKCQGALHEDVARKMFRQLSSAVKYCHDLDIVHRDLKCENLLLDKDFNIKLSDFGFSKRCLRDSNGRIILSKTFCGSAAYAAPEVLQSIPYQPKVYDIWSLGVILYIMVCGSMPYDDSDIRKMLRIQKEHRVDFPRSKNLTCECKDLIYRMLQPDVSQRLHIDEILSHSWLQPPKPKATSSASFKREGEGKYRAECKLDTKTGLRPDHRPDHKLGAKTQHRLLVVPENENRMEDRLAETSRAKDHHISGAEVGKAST
Protocol: as §1

CAMK2A = CAMK2A (Homo sapiens, UniProt Q9UQM7)
Protocol: as §1

Chain of PRKCQ/PKCQ (Q04759 whole entry): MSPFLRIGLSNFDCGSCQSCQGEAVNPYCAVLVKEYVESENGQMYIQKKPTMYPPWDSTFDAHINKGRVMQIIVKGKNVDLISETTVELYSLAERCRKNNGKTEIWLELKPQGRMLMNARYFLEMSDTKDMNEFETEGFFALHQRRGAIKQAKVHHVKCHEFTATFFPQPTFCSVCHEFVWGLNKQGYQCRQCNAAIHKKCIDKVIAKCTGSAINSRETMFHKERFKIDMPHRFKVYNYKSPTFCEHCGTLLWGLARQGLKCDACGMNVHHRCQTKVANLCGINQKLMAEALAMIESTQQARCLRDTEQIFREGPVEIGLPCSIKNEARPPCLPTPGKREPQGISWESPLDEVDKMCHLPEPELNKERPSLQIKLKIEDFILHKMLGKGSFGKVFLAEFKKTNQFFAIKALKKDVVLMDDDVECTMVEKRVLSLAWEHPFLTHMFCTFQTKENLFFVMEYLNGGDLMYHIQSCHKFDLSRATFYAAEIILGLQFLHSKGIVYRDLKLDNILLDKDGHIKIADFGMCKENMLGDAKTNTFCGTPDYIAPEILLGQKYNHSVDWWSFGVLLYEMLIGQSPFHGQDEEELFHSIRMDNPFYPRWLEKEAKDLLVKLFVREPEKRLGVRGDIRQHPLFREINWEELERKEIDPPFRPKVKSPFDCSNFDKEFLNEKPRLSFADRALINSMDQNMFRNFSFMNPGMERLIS
Chain of CAMK2A (Q9UQM7 whole entry): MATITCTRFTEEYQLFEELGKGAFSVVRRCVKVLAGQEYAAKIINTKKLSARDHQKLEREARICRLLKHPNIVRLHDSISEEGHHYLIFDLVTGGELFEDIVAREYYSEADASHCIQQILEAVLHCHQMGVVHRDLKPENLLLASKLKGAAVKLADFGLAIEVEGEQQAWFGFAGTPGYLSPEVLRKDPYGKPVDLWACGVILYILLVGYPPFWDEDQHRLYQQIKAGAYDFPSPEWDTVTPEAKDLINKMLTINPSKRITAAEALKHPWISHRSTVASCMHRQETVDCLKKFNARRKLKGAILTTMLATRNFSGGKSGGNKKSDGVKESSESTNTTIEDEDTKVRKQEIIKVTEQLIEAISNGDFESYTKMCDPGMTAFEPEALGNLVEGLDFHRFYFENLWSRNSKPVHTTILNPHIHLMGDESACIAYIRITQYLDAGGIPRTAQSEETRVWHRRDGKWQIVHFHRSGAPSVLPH

Compound	inhibition at 1 µM (PRKCQ/PKCQ)	inhibition at 1 µM (TAOK1)	inhibition at 1 µM (MAP3K2)	inhibition at 1 µM (TSSK2)	inhibition at 1 µM (CAMK2A)
C=CC(=O)N1CCCC(c2c(F)cc(C(N)=O)c3[nH]c4c(c23)CCCCC4)C1 (single isomer, unassigned) [Compound 5-6]	-3.7%	11.9%	-19%	10.2%	4.9%
C=CC(=O)N1CCC[C@@H](c2c(F)cc(C(N)=O)c3[nH]c4c(c23)CC2(CC4)CC2)C1 [Compound 6-2, (S)-5-(1-acryloylpiperidin-3-yl)-6-fluoro-1,2,4,9-tetrahydrospiro[carbazole-3,1′-cyclopropane]-8-carboxamide]	0.7%	9.5%	-6.6%	22.9%	35.8%
C=CC(=O)N1CCC[C@@H](c2c(F)cc(C(N)=O)c3[nH]c4c(c23)CCC4)C1 [Compound 10-2, (S)-8-(1-acryloylpiperidin-3-yl)-7-fluoro-1,2,3,4-tetrahydrocyclo-penta[b]indole-5-carboxamide]	-72.5%	11.1%	15.7%	25.3%	14.7%
